Tested on: IgE
Test: Secondary antigen-specific IgE response to TNP-KLH on alum
Assay type: in vivo, mouse (Balb/c female)
Details: 20 μg IP 3x daily days 24 and 25
Procedure: ELISA (enzyme linked immunosorbant assay) measurements of IgE are as follows. About 5 μg of B1E3 antibody in 100 μl borate buffered saline (pH8.5) is added to wells of a NuncImmulon II 96 well plate (DiRuscio & Assoc., St. Louis, Mo.) at 37° C. for 90 minutes. The non-bound antibody is removed by flicking the plate. Unreacted sites on the plastic plate are blocked by adding about 200 μl of a 2% solution of newborn bovine serum (NBS) in PBS at 37° C. for 60 minutes. The standard IgE (or an unknown murine serum sample) is diluted to between about 4 ng/ml-256 ng/ml in Hanks-HS (20 mM Hepes, 2% NBS in Hanks Balanced Salt Solution, Gibco, Grand Island, N.Y.) or to 1/200 to 1/1000 in Hanks-HS respectively. 100 μl of standard (or unknown dilutions) are added in triplicate to the wells of the plate and allowed to absorb to B1E3 antibody at about 37° C. for 2-4 hours. The solution is removed by flicking the plate and each well is washed with about 0.5 ml 0.05% Tween 20-PBS 5 times. About 100 μl of biotinylated R1E4, called the primary antibody, diluted to 200 ng/ml is added to all wells and incubated at about 4° C. overnight. The solution is removed by flicking the plate and washed 5 times as described above. The developing reagent (Avidin and biotin-horse radish peroxidase) is incubated in 2% NBS in PBS at ambient temperature for 30 minutes, according to manufacturer's specifications (Vector Laboratories, Burlingame, Calif.). About 100 μl of developing reagent is added to each well and incubated at ambient temperature for 30 minutes. Colorimetric substrate for the developing reagent (ABTS peroxidase substrate system, KPL, Gaithersburg, Md.) is prepared by mixing equal volumes of solutions A and B and incubating at ambient temperature for 60 minutes. The developing reagent solution is removed by flicking the plate and washed 5 times as described above. About 100 μl of the mixture of substrates is added to each well and incubated at ambient temperature for 60 minutes. The optical density of each well is determined on a BioTek ELISA reader (Biotek Instruments, Inc., Burlington, Vermont) and the absorbance data transferred electronically to a DEC VAX mainframe computer. A standard curve is fitted to the IgE standard optical densities using straight line, linear regression statistical fits. IgE in the unknown serum samples is determined by comparing the optical density of the unknown to the standard curve and multiplying that number by the dilution of serum used in the assay.
Stimulation of a secondary antigen-specific IgE response in mouse with haptenated antigen absorbed on alum is inhibited by (±) methyl 11α,16-dihydroxy-16-methyl-9-oxoprosta-5Z,13E-dien-1-oate. Three groups of 7 Balb/c female mice were treated as follows. […]

For CCCCC(C)(O)C/C=C/[C@H]1[C@H](O)CC(=O)[C@@H]1C/C=C\CCCC(=O)OC (mixture of isomers) [(±) methyl 11α,16-dihydroxy-16-methyl-9-oxoprosta-5Z,13E-dien-1-oate], the “secondary IgE response” value was “inhibited from the synthesis of a secondary IgE response”, the “IgE ± SD” value (day 28, p < .02 (boosted control 28,568)) was 14,448 ± 4926 ng/ml and the “IgE ± SD” value (day 30, p < .016 (boosted control 22,564)) was 7564 ± 1528 ng/mL. The “IgE ± SD” value (day -1 baseline before treatment) was 1487 ± 138 ng/mL.
